Read-outs that look alike come from different tables or passages of the source.

The values that follow come from patent publication US8546380B2, “Aminodihydrothiazine derivatives” (Shionogi & Co., Ltd., priority 2005, dated 2013).

For series [1], the target named is recombinant human BACE-1 protein (Homo sapiens (Human), UniProt P56817). In words: Measurement of Inhibition of β-Secretase Activity. The series is classed as biochemical. In outline: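 Recombinant human BACE-1 incubated with compound and Eu-cryptate-labelled biotinylated peptide substrate 3 h at 30° C in 50 mM sodium acetate pH 5.0, 0.008% Triton X-100. Streptavidin-XL665 in KF-containing phosphate buffer pH 7.0 then added, 1 h at 30° C, for time-resolved FRET read-out.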
recombinant human BACE-1 protein, sequence (P56817 46-501): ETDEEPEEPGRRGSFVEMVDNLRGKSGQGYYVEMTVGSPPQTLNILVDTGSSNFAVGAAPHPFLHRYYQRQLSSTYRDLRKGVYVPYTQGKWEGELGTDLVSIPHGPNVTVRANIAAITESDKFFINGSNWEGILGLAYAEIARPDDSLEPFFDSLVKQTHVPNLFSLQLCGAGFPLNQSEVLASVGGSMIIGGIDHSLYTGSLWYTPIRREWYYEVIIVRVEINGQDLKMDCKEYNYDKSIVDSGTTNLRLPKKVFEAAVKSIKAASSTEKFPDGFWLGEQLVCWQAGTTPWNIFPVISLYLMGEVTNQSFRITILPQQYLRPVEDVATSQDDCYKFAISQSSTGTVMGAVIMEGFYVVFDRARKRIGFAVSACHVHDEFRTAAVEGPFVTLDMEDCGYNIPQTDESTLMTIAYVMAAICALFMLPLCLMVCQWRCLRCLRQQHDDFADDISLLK

The mark [2] stands for this setting: fluorescence-quenched peptide substrate 18 nM, BACE-1 7.4 nM, 3 h at 30° C., pH5.0, read-out: IC50 value.
The mark [3] stands for this setting: recombinant human BACE-1 protein, 3 h at 30° C., pH5.0, read-out: IC50 value.

As a reminder, the IC50 is the midpoint of a concentration-inhibition curve. A word on the melting point: it is the temperature, or range, at which the solid turns liquid. Compound `CC1(c2cccc(/C=C\CCc3ccc(Cl)cc3)c2)CCSC(N)=N1.Cl` (stereo not shown) [Compound 1261] returned a melting point of 179 to 180 °C. In addition, the IC50 in series [1] (setting [2]) was < 100 µM.
For `CCOC(=O)/C=C/c1cccc(C2(C)CCSC(N)=N2)c1` (stereo not shown) [Compound 417], the melting point fell in the range of 137 to 139 °C. Further, in series [1] (setting [3]), the IC50 was 5 µM.
As for `CC1(c2cccc(/C=N/O)c2)CCSC(N)=N1` (stereo not shown) [Compound 611], the melting point lay within 200 to 202 °C. In addition, the IC50 in series [1] (setting [2]) was < 100 µM.
On the same counts, the results for `CC(C)Oc1cnc(C(=O)Nc2cccc(C3(C)CCSC(N)=N3)c2)cn1` (stereo not shown) [Compound 410] are 178 to 182 °C and < 100 µM.
In the case of `CC1(c2cccc(COc3ccccc3)c2)CCSC(N)=N1` (stereo not shown) [Compound 990], the melting point is 126 to 129 °C. In series [1] (setting [2]), the IC50 was < 100 µM.
Take `Cc1cnc(C(=O)Nc2cccc(C3(C)CCSC(N)=N3)c2)cn1.Cl` (stereo not shown) [Compound 309]: the melting point lay within 241 to 244 °C. The IC50 in series [1] (setting [3]) amounted to 0.833 µM.
Regarding `Cc1cc(C(=O)Nc2cc(Br)cc(C3(C)CCSC(N)=N3)c2)c(C)o1.Cl` (stereo not shown) [Compound 436], the melting point lay within 254 to 256 °C. Moreover, the IC50 in series [1] (setting [3]) came to 0.16 µM.
As for `CC1(c2cccc(CNC(=O)c3ccc(F)cc3)c2)CCSC(N)=N1.Cl` (stereo not shown) [Compound 1241], the melting point was 194 to 195 °C. For the same compound, the IC50 in series [1] (setting [2]) is < 100 µM.
`CC1(c2ccc(O)cc2)CCSC(N)=N1.Cl` (stereo not shown) [Compound 413]: the melting point fell in the range of 251 to 254 °C. Besides, the IC50 in series [1] (setting [2]) was < 100 µM.
The matching figures for `CC1(c2cccc(SC(=O)c3ncc(Br)cn3)c2)CCSC(N)=N1` (stereo not shown) [Compound 900]: 205 to 207 °C and < 100 µM.
On the same counts, the results for `CN(C)c1cnc(C(=O)Nc2cccc(C3(C)CCSC(N)=N3)c2)cn1` (stereo not shown) [Compound 302] are 122 to 126 °C and < 100 µM.
For `CC1(c2cc(C#N)cc(NC(=O)c3ccc(Cl)cn3)c2)CCSC(N)=N1` (stereo not shown) [Compound 255], the melting point lay in the range of 238 to 239 °C. The IC50 in series [1] (setting [2]) is < 100 µM.
The matching figures for `CC1(c2ccc(F)cc2)CCSC(N)=N1` (stereo not shown) [Compound 549]: 100 to 101 °C and < 100 µM.
Regarding `COc1ccc(C2(C)N=C(N)SCC2C)cc1.Cl` (stereo not shown) [Compound 8], the melting point was in the range of 214 to 217 °C. Besides, the IC50 in series [1] (setting [2]) was < 100 µM.
With `CC1(c2cc(F)cc(NC(=O)c3ccc(Cl)cn3)c2)CCSC(N)=N1` (stereo not shown) [Compound 99], the melting point fell in the range of 221 to 224 °C. The IC50 in series [1] (setting [2]) is < 100 µM.
On the same counts, the results for `CC1(c2ccc3c(c2)NC(=O)CO3)CCSC(N)=N1` (stereo not shown) [Compound 38] are 240 to 244 °C (dec.) and < 100 µM.
Regarding `CC1(c2cccc(NC(=O)c3ccc(C#N)cc3)c2)CCSC(N)=N1` (stereo not shown) [Compound 498], the melting point is 122 to 125 °C. Further, the IC50 in series [1] (setting [3]) came out at 0.93 µM.
`CC1(c2ccc(C(=O)Nc3ccccc3)s2)CCSC(N)=N1` (stereo not shown) [Compound 483] came in with a melting point of 224 to 227 °C. The IC50 in series [1] (setting [2]) is < 100 µM.
Take `CC1(c2cccc(NCc3ccccn3)c2)CCSC(N)=N1` (stereo not shown) [Compound 333]: the melting point was 154 to 158 °C. Further, in series [1] (setting [2]), the IC50 was < 100 µM.
As to `CC1(c2cccc(NC(=O)c3ccc(C(N)=O)cn3)c2)CCSC(N)=N1.Cl` (stereo not shown) [Compound 73], the melting point lay within 266 to 269 °C. For the same compound, in series [1] (setting [3]), the IC50 was 0.435 µM.
Take `COc1ccc(OCc2cccc(C3(C)CCSC(N)=N3)c2)cc1` (stereo not shown) [Compound 502]: the melting point was in the range of 137 to 138 °C. For the same compound, in series [1] (setting [2]), the IC50 was < 100 µM.
On the same counts, the results for `COc1ccc(C2(C)CCSC(N)=N2)cc1F` (stereo not shown) [Compound 551] are 139 to 141 °C and < 100 µM.
`CC1(c2cc(F)cc(NC(=O)c3ccc(C(F)(F)F)cn3)c2)CCSC(N)=N1` (stereo not shown) [Compound 178] registered a melting point of 224 to 225 °C. For the same compound, the IC50 in series [1] (setting [2]) is < 100 µM.
`CC1(c2cccc(C(=O)Nc3ccc(Cl)cn3)c2)CCSC(N)=N1.Cl.Cl` (stereo not shown) [Compound 220] registered a melting point of 191 to 193 °C. The IC50 in series [1] (setting [3]) amounted to 1.5 µM.
Regarding `Cc1cnc(C(=O)Nc2ccc(F)c(C3(C)CCSC(N)=N3)c2)cn1` (stereo not shown) [Compound 359], the melting point lay within 212 to 214 °C. The IC50 in series [1] (setting [2]) is < 100 µM.
On the same counts, the results for `COc1ccc(C(=O)Nc2cccc(C3(C)CCSC(N)=N3)c2)nn1` (stereo not shown) [Compound 405] are 192 to 194 °C and < 100 µM.
With `Cc1ccccc1Oc1ccc(C2(C)CCSC(N)=N2)cc1` (stereo not shown) [Compound 729], the melting point was 167 to 169 °C. Also, the IC50 in series [1] (setting [2]) is < 100 µM.
With `CC1(c2cccc(/C=C/c3ccc(Cl)cc3)c2)CCSC(N)=N1.Cl` (stereo not shown) [Compound 161], the melting point was 247 to 251 °C. Further, in series [1] (setting [3]), the IC50 worked out at 7.7 µM.
For `CC1(c2cccc(CCC(=O)Nc3ccc(Cl)cn3)c2)CCSC(N)=N1.Cl.Cl` (stereo not shown) [Compound 657], the melting point is 199 to 203 °C. In series [1] (setting [2]), the IC50 was < 100 µM.
Compound `Cc1cnc(C(=O)Nc2cccc(C3(C)CCSC(N)=N3)c2)cn1` (stereo not shown) [Compound 444] had a melting point of 214 to 215 °C. Besides, in series [1], the IC50 was < 100 µM.
Turning to `CC1(c2ccc(Oc3ccc(Br)cc3)cc2)CCSC(N)=N1` (stereo not shown) [Compound 735], the melting point lay within 166 to 168 °C. For the same compound, in series [1] (setting [2]), the concentration for half-maximal inhibition (IC50) is < 100 µM.
On the same counts, the results for `Cc1ccccc1C1(C)CCSC(N)=N1` (stereo not shown) [Compound 756] are 110 to 111 °C and < 100 µM.
The matching figures for `CC1(c2cc(NC(=O)c3n[nH]c4ccccc34)ccc2F)CCSC(N)=N1` (stereo not shown) [Compound 241]: 187 to 190 °C and < 100 µM.
On the same counts, the results for `CC1(c2cccc(NC(=O)c3ncc(Cl)cn3)c2)CCSC(N)=N1` (stereo not shown) [Compound 515] are 204 to 206 °C and < 100 µM.
For the compound `CC1(c2cccc(CO)c2)CCSC(N)=N1` (stereo not shown) [Compound 501], the melting point lay in the range of 155 to 156 °C. Also, the half-maximal inhibitory concentration (IC50) in series [1] (setting [2]) is < 100 µM.
`COc1ccc(NC(=O)/C=C(\Cl)c2cccc(C3(C)CCSC(N)=N3)c2)cc1` (stereo not shown) [Compound 1114] had a melting point of 121 to 124 °C. Further, the IC50 in series [1] (setting [2]) was < 100 µM.
On the same counts, the results for `COc1cnc(C(=O)Nc2cccc(C3(C)CCSC(N)=N3)c2)cn1` (stereo not shown) [Compound 243] are 182 to 184 °C and < 100 µM.
Turning to `CC1(c2cccc(OCCCc3ccc(Cl)cc3)c2)CCSC(N)=N1` (stereo not shown) [Compound 1207], the melting point lay within 106 to 108 °C. Moreover, the IC50 in series [1] (setting [3]) is 4 µM.
Regarding `CC1(c2cccc(NC(=O)c3ccc(N4CCOCC4)cn3)c2)CCSC(N)=N1` (stereo not shown) [Compound 1131], the melting point lay within 189 to 191 °C. Further, the IC50 in series [1] (setting [2]) was < 100 µM.
Take `COc1ccc(CNc2cccc(C3(C)CCSC(N)=N3)c2)cc1.Cl.Cl` (stereo not shown) [Compound 600]: the melting point is 178 to 180 °C. Moreover, the IC50 in series [1] (setting [2]) is < 100 µM.
`CC1(c2cc(Br)cc(NC(=O)c3ccc(Br)cc3)c2)CCSC(N)=N1.Cl` (stereo not shown) [Compound 1262] came in with a melting point of 278 to 281 °C. The IC50 in series [1] (setting [3]) is 0.14 µM.
On the same counts, the results for `CC1(c2cc(Br)cc(NC(=O)c3cc4ccccc4s3)c2)CCSC(N)=N1.Cl` (stereo not shown) [Compound 1014] are 206 to 210 °C and 0.165 µM.
`CC1(c2csc3ccccc23)CCSC(N)=N1` (stereo not shown) [Compound 42]: the melting point fell in the range of 187 to 188 °C. For the same compound, the IC50 in series [1] (setting [2]) is < 100 µM.
As for `CC1(c2cccc(OCCOc3ccc(Cl)cc3)c2)CCSC(N)=N1.Cl` (stereo not shown) [Compound 121], the melting point fell in the range of 166 to 167 °C. Also, in series [1] (setting [2]), the IC50 was < 100 µM.
As for `CC1(c2cccc(CNC(=O)c3ccc(Cl)cc3)c2)CCSC(N)=N1.Cl` (stereo not shown) [Compound 1184], the melting point lay in the range of 149 to 150 °C. Moreover, the IC50 in series [1] (setting [2]) is < 100 µM.
The matching figures for `COCc1ccc(C(=O)Nc2cccc(C3(C)CCSC(N)=N3)c2)nc1` (stereo not shown) [Compound 128]: 159 to 163 °C and < 100 µM.
On the same counts, the results for `CC(=O)Nc1cc(Cl)cnc1C(=O)Nc1cccc(C2(C)CCSC(N)=N2)c1` (stereo not shown) [Compound 511] are 211 to 214 °C and < 100 µM.
The matching figures for `Cc1ccc2cc(C3(C)CCSC(N)=N3)ccc2c1` (stereo not shown) [Compound 758]: 156 to 157 °C and < 100 µM.
`CC1(c2cccc(NC(=O)c3ccc4ccccc4n3)c2)CCSC(N)=N1` (stereo not shown) [Compound 935] registered a melting point of 161 to 165 °C. Moreover, the IC50 in series [1] (setting [2]) is < 100 µM.
`CC1(c2cccc(/C=N/OCc3cccnc3)c2)CCSC(N)=N1` (stereo not shown) [Compound 584] had a melting point of 152 to 153 °C. The IC50 in series [1] (setting [2]) is < 100 µM.
In turn, `CC1(c2ccc3c(c2)CCCC3)CCSC(N)=N1` (stereo not shown) [Compound 6] showed a melting point of 147 to 148 °C. In addition, the IC50 in series [1] (setting [2]) is < 100 µM.
On the same counts, the results for `COc1ccc2cc(C3(C)CCSC(N)=N3)ccc2c1` (stereo not shown) [Compound 871] are 212 to 213 °C and < 100 µM.
On the same counts, the results for `CC1(c2cccc(NC(=O)c3ncc(C(F)(F)F)cc3F)c2)CCSC(N)=N1` (stereo not shown) [Compound 643] are 155 to 157 °C and < 100 µM.
On the same counts, the results for `CC1(c2cccc(NC(=O)c3cnccn3)c2)CCSC(N)=N1` (stereo not shown) [Compound 164] are 91 to 96 °C and < 100 µM.
Regarding `CC1(c2cccc(/C(Cl)=C/C(=O)Nc3ccc(Cl)cn3)c2)CCSC(N)=N1` (stereo not shown) [Compound 1142], the melting point is 182 to 186 °C (dec.). Moreover, the half-maximal inhibitory concentration (IC50) in series [1] (setting [2]) is < 100 µM.
On the same counts, the results for `CC(=O)c1ccc(C(=O)Nc2cccc(C3(C)CCSC(N)=N3)c2)nc1` (stereo not shown) [Compound 139] are 287 to 290 °C and < 100 µM.
